Results reported in patent US20230045199A1, “COMPOSITIONS AND METHODS FOR HEMOGLOBIN PRODUCTION” (THE CHILDREN'S HOSPITAL OF PHILADELPHIA, priority 2019, published 2023).
Read-outs that look alike come from different tables or passages of the source.

Test system: PP6C
Assay: Western blot of PP6C and gamma-globin in primary human cells after RNP electroporation of SpCas9 with guide RNA
Assay type: cell-based
From the text: FIGS. 2A-2D provide data regarding validation of PP6C as a regulator of HbF in human primary cells utilizing RNP-based electroporation of SpCas9 with guide RNA targeting PP6C. FIG. 2A depicts protein levels by Western blot of PP6C and gamma-globin with 6 independent guide RNA targeting PP6C or a non-targeting guide RNA. […] These specific guide RNAs were utilized for further primary human cell testing. FIG. 2B provides a graph of gamma globin mRNA levels in four independent biological replicates of human primary cells treated with PP6C sgRNA #1 or #3; a guide RNA targeting the BCL11A +58 enhancer (positive control), or a non-targeting guide RNA (negative control). FIG. 2C provides representative flow cytometric plots of HbF staining (top) and compiled F-cell flow cytometric staining in four independent biological replicates (bottom) in cells treated with PP6C sgRNA, BCL11A +58 sgRNA, or non-targeting sgRNA. […] FIG. 2D are representative cation-exchange high performance liquid chromatography (HPLC) tracings (top) and complied HPLC HbF+ quantitation in two independent biological replicates (bottom) in cells treated with PP6C sgRNA, BCL11A +58 sgRNA, or non-targeting sgRNA. HbF elutes as a distinct peak (grey box), followed by adult hemoglobin (HbA). Percentages are quantified as HbF percentage of total globins (HbF+HbA).
Cells were transduced with one of the six guide RNAs targeting PP6C, a guide RNA targeting BCL11A exon 2 (positive control; BCL11A is a repressor of HbF expression), or non-targeting guide RNA or untreated control (negative controls).

| Substance | PP6C protein level | gamma-globin protein levels | gamma-globin protein levels (listed as PP6C guide RNA #1) | gamma-globin protein levels (listed as PP6C guide RNA #3) |
| --- | --- | --- | --- | --- |
| PP6C sgRNA1: CRISPR sgRNA targeting PP6C, sequence GCACATCAACTAGTGCACGA (SEQ ID NO: 5) (listed as DNA, chemistry not given here) | significantly depleted | significantly increased | significant induction |  |
| PP6C sgRNA3: CRISPR sgRNA targeting PP6C, sequence GGAACTGCCCGGAATAACTT (SEQ ID NO: 7) (listed as DNA, chemistry not given here) | significantly depleted | significantly increased |  | significant induction |
| PP6C sgRNA4: CRISPR sgRNA targeting PP6C, sequence TCCTCGGGGACTGATAGCCC (SEQ ID NO: 8) (listed as DNA, chemistry not given here) | significantly depleted | significant induction |  |  |
